What was measured:
[1] = system: D2-like dopamine receptors; test: D2-like dopamine receptor binding: displacement of tritiated (S)-sulpiride in rat striatal tissue; set-up: species or system male Charles River CD rats; details: tritiated (S)-sulpiride 1 nM, 4° C., 40 minutes
Description: Striatal tissue from the brains of male Charles River CD rats weighing between 140-250 g were homogenised in ice-cold 50 mM Tris-HCl buffer (pH 7.7 when measured at 25° C.) and centrifuged at 40,000 g for 10 minutes. The pellet was resuspended in Tris salts buffer (50 mM Tris-HCl buffer containing 120 mM NaCl, 5 mM KCl, 2 mM CaCl2 and 1 mM MgCl2 with the addition of 6 mM ascorbic acid; pH 7.7 when measured at 25° C.), and again centrifuged at 40,000 g for 10 minutes. The final pellet was stored at -80° C. Before each test the pellet was resuspended in Tris salts buffer (equivalent to 2 mg wet weight of tissue/ml). Aliquots (720 μl; equivalent to 1.44 mg wet weight of tissue/tube) of this suspension were then added to tubes containing the ligand (40 μl; 1 nM) and Tris salts buffer (40 μl; total binding) or spiroperidol (40 μl; 10 nM; non-specific binding) or test compound (40 μl; at a single concentration of 10^-6 M or at 6 concentrations ranging from 10^-11 -10^-4 M). The ligand was tritiated (S)-sulpiride and the mixture was incubated at 4° C. for 40 minutes before the incubation was terminated by rapid filtration.
The filters were washed with ice-cold Tris-HCl buffer and dried. The filters were punched out in to vials, scintillation fluid added and were left for about 20 hours before being counted by scintillation spectrophotometry. The percentage displacement of specific binding of the tritiated ligand was calculated for the single concentration (10^-6 M) of test compound. Displacement curves were then produced over a range of concentrations for those compounds which displaced ≥50% of specific binding of the tritiated ligand at 10^-6 M. The concentration which gave a 50% inhibition of specific binding (IC50) was obtained from the curve. The inhibition coefficient Ki was then calculated using the formula [formula]
(§1) in which [ligand] is the concentration of the tritiated ligand used and KD is the equilibrium dissociation constant for the ligand.
(§2) The % figures in Table 1 are for % displacement at 10^-6 M.

5-HT1A receptors = target: T1, 5-HT1A receptors (Rattus norvegicus, UniProt P19327); test: 5-HT1A receptor binding: displacement of [3H]8-hydroxy-2-(dipropylamino)tetralin in rat hippocampal tissue; set-up: species or system male Charles River CD rats; details: 0.5 h, 10^-6 M, [3H]-OH-DPAT 2 nM, 25° C., 30 minutes, read-out: % displacement at 10^-6 M, 5-HT1A (column headed Ki (nM) value for 5-HT1A)
T1 construct: Hippocampal tissue from the brains of male Charles River CD rats; from tissue; host or cells: hippocampal tissue from brains of male Charles River CD rats
T1 sequence (P19327 1-422): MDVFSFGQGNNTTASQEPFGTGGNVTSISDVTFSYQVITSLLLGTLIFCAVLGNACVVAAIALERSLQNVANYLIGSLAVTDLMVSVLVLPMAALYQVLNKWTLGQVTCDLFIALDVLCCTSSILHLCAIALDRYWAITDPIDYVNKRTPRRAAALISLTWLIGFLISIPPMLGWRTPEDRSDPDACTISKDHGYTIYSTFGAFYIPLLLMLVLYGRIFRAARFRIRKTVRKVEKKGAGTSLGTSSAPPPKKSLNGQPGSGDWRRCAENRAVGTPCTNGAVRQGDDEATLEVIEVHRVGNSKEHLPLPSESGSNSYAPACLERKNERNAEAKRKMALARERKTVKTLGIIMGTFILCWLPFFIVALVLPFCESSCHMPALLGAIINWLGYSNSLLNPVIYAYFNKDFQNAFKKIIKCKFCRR
Description: Hippocampal tissue from the brains of male Charles River CD rats weighing between 150-250 g were homogenised in ice-cold 50 mM Tris-HCl buffer (pH 7.7) when measured at 25° C., 1:40 w/v) and centrifuged at 30,000 g at 4° C. for 10 minutes. The pellet was rehomogenised in the same buffer, incubated at 37° C. for 10 minutes and centrifuged at 30,000 g at 4° C. for 10 minutes. The final pellet was resuspended in 50 mM Tris-HCl buffer (pH 7.7) containing 4 mM CaCl2, 0.1% L-ascorbic acid and 10 μM pargyline hydrochloride (equivalent to 6.25 mg wet weight of tissue/ml) and used immediately in the binding assay. Aliquots (400 μl; equivalent to 2.5 mg wet weight of tissue/tube) of this suspension were added to tubes containing the ligand (50 μl; 2 nM) and distilled water (50 μl; total binding) or 5-HT (50 μl; […]; non-specific binding) or test compound (50 μl; at a single concentration of 10^-6 M or at 10 concentrations ranging from 10^-11 -10^-3 M). The ligand was [^3 H]8-hydroxy-2-(dipropylamino)tetralin ([^3 H]-OH-DPAT) and the mixture was incubated at 25° C. for 30 minutes before the incubation was terminated by rapid filtration.
The filters were washed with ice-cold Tris-HCl buffer and dried. The filters were punched out into vials, scintillation fluid added and radioactivity determined by liquid scintillation counting. The percentage displacement of specific binding of the tritiated ligand was calculated for the single concentration (10^-6 M) of test compound. Displacement curves were then produced for those compounds which displaced ≥50% of specific binding of the tritiated ligand at 10^-6 M using a range of concentrations of the compound. The concentration which gave 50% inhibition of specific binding (IC50) was obtained from the curve. The inhibition coefficient Ki was then calculated using the formula [formula]
as §1, §2

Compound | % displacement at 10^-6 M, D2-like (column headed Ki (nM) value for D2-like) [1] [%] | inhibition at 1 µM (5-HT1A receptors) [%]
O=S(=O)(NCC1CCN(C[C@H]2COc3ccc4scc(Cl)c4c3O2)CC1)c1ccccn1 [Example 1, (S)-N{[1-(9-chloro-2,3-dihydrothieno[3,2-f][1,4]benzodioxin-2-ylmethyl)piperid-4-yl]methyl}pyridine-2-sulphonamide] | 106 | 98
O=S(=O)(NCC1CCN(C[C@H]2COc3ccc4[nH]ccc4c3O2)CC1)c1ccccn1 [Example 2, (S)-N-{[1-(2,3-dihydro-7H-1,4-dioxino[2,3-e]indol-2-ylmethyl)piperid-4-yl]methyl}pyridine-2-sulphonamide] | 105 | 99
CC(=O)Nc1ccc(S(=O)(=O)NCC2CCN(C[C@H]3COc4ccc5[nH]ccc5c4O3)CC2)cc1 [Example 3, (S)-4-acetamido-N-{[1-(2,3-dihydro-7H-1,4-dioxino[2,3-e]indol-2-ylmethyl)piperid-4-yl]methyl}benzenesulphonamide] | 105 | 97

From patent publication US6218405A, “Heteroarylsulfonamide derivatives and pharmaceutical compositions containing them” (KNOLL Aktiengesellschaft, priority 1996, dated 2001)
